Assay results as given in US20200069664A1, “METHODS FOR TREATING INFECTION” (Salix Pharmaceuticals, Ltd, priority 2010, published 2020).
Entries after “also recorded” stand apart in the source; their conditions may differ. Where two headings read alike, the source gives them in different places.

Experiments:
[1] = oral administration, healthy volunteers (Descombe et al. 1994); cited from earlier work
[2] = tested on: EAEC isolates; experiment: MMP-9 detection by gelatin zymography in EAEC isolates after rifaximin exposure; format: cell-based, E coli
Experimental: Expression of matrix metalloproteinase-9 (MMP-9) was analyzed using gelatin zymography in all viable EAEC and S. sonnei isolates growing on MacConkey agar. Isolates were suspended in 1 mL of 0.1 M phosphate buffered saline (pH 7.2) and centrifuged at 1000 g for 10 minutes at 4° C. The supernatant was subjected to gelatin zymography to detect MMP-9 activity using a modified Heussen and Dowdle protocol (9). In summary, the supernatant was diluted 1:2 in a sample buffer (125 mM Tris-HCl, pH 6.8, 20% glycerol, 4% sodium dodecyl sulfate, 0.02% bromphenol blue), and 20 μL was loaded on to a 10% SDS-PAGE gel containing 1 mg/mL gelatin. Prestained standard proteins were used as molecular weight markers. After electrophoresis, gels were rinsed with incubation buffer (2.5% triton X-100, 50 mM Tris-HCl, pH 7.4, 0.02% Brij 35, 10 mM CaCl2, 2 μM ZnCl2) for 1 hour at room temperature to remove SDS. Gels were then incubated overnight at 37° C. and subsequently stained with Coomassie brilliant blue R-250 (Thermo Fisher Scientific, Inc, Rockford, Ill.). […] Matrix metalloproteinase-9 was identified among all gelatinolytic proteins by size.

[3] = tested on: EAEC isolates; experiment: Isolate viability after rifaximin exposure, EAEC; format: cell-based, E coli
[4] = tested on: ETEC isolates; format: cell-based, E coli
[5] = tested on: S. sonnei; experiment: S. sonnei adherence and internalization in antibiotic-pretreated HeLa cells; format: cell-based; conditions: vs other treatment groups
[6] = tested on: ETEC strains; experiment: Isolate viability after rifaximin exposure, ETEC; format: cell-based, E coli
[7] = rifaximin 32 and 64 mg/L for 24 hours
[8] = rifaximin 8 mg/L, exposure 4 hrs
[9] = rifaximin 8 mg/L, exposure 8 hrs
[10] = rifaximin 8 mg/L, exposure 18 hrs
[11] = rifaximin 8 mg/L, exposure 24 hrs
[12] = rifaximin 32 mg/L, exposure 4 hrs
[13] = rifaximin 32 mg/L, exposure 8 hrs
[14] = rifaximin 32 mg/L, exposure 18 hrs
[15] = rifaximin 64 mg/L, exposure 4 hrs
[16] = rifaximin 64 mg/L, exposure 8 hrs

## (2S,16Z,18E,20S,21S ,22R, 23R,24R,255,265,275,28E)-5,6,21,23,25 Pentahydroxy-27-methoxy-2,4,11,16,20,22,24,26-octamethyl-2,7-(epoxypentadeca-(1,11,13) trienimino) benzofuro (4,5-e) pyrido(1,2,-a) benzimidazole-1,15(2H)-dione,25-acetate [Rifaximin]
[1]
  Systemic absorption: negligible
[2]; 18-hour time point (rifaximin 8 mg/L)
  MMP-9 expression by EAEC isolates: one EAEC isolate produced MMP-9, but the other isolate did not
[2]; rifaximin 8 mg/L for 4 and 8 hours
  MMP-9 expression by EAEC isolates: expressed MMP-9
[2]; rifaximin 8 mg/L for 24 hours
  MMP-9 expression by EAEC isolates: undetectable
[2]; rifaximin 32 or 64 mg/L for 4, 8, or 18 hours
  MMP-9 expression by EAEC isolates: undetectable
[3]; rifaximin 8 mg/L for 24 hours
  EAEC viability: viable
[3]; rifaximin 8, 32, and 64 mg/L at 4, 8, and 18 hours
  EAEC viability: viable
[3]; [7]
  EAEC viability: no viable isolates were recovered; also recorded: not viable
[4]; 4- and 8-hour exposure to rifaximin 8, 32, and 64 mg/L
  Expression of virulence factors (ST, LT, CS2/CS3, CS6) by ETEC isolates: expressed all examined virulence factors
[4]; 18 hours, rifaximin 8 mg/L
  Expression of virulence factors (ST, LT, CS2/CS3, CS6) by ETEC isolates: all virulence factors were expressed
[4]; 18 hours, rifaximin 32 mg/L
  Expression of virulence factors (ST, LT, CS2/CS3, CS6) by ETEC isolates: no factors were seen
[4]; 24 hours, rifaximin 8 mg/L
  Expression of virulence factors (ST, LT, CS2/CS3, CS6) by ETEC isolates: did not express any virulence factors
[4]; [8]
  Expression of CS2/CS3 in ETEC isolates: +
  Expression of CS6 in ETEC isolates: +
  Expression of LT in ETEC isolates: +
  Expression of ST in ETEC isolates: +
  Expression of ST/LT in ETEC isolates: +
[4]; [9]
  Expression of CS2/CS3 in ETEC isolates: +
  Expression of CS6 in ETEC isolates: +
  Expression of LT in ETEC isolates: +
  Expression of ST in ETEC isolates: +
  Expression of ST/LT in ETEC isolates: +
[4]; [10]
  Expression of CS2/CS3 in ETEC isolates: +
  Expression of CS6 in ETEC isolates: +
  Expression of LT in ETEC isolates: +
  Expression of ST in ETEC isolates: +
  Expression of ST/LT in ETEC isolates: +
[4]; [11]
  Expression of CS2/CS3 in ETEC isolates: −
  Expression of CS6 in ETEC isolates: −
  Expression of LT in ETEC isolates: −
  Expression of ST in ETEC isolates: −
  Expression of ST/LT in ETEC isolates: −
[4]; [12]
  Expression of CS2/CS3 in ETEC isolates: +
  Expression of CS6 in ETEC isolates: +
  Expression of LT in ETEC isolates: +
  Expression of ST in ETEC isolates: +
  Expression of ST/LT in ETEC isolates: +
[4]; [13]
  Expression of CS2/CS3 in ETEC isolates: +
  Expression of CS6 in ETEC isolates: +
  Expression of LT in ETEC isolates: +
  Expression of ST in ETEC isolates: +
  Expression of ST/LT in ETEC isolates: +
[4]; [14]
  Expression of CS2/CS3 in ETEC isolates: −
  Expression of CS6 in ETEC isolates: −
  Expression of LT in ETEC isolates: −
  Expression of ST in ETEC isolates: −
  Expression of ST/LT in ETEC isolates: −
[4]; [15]
  Expression of CS2/CS3 in ETEC isolates: +
  Expression of CS6 in ETEC isolates: +
  Expression of LT in ETEC isolates: +
  Expression of ST in ETEC isolates: +
  Expression of ST/LT in ETEC isolates: +
[4]; [16]
  Expression of CS2/CS3 in ETEC isolates: +
  Expression of CS6 in ETEC isolates: +
  Expression of LT in ETEC isolates: +
  Expression of ST in ETEC isolates: +
  Expression of ST/LT in ETEC isolates: +
[5]
  S. sonnei attachment: no effect
  S. sonnei internalization: no effect
[6]; rifaximin 8 mg/L for 24 hours
  ETEC viability: viable
[6]; rifaximin 64 mg/L for 18 hours
  ETEC viability: No ETEC isolates were viable; also recorded: not viable
[6]; rifaximin 8, 32, and 64 mg/L for 4 and 8 hours
  ETEC viability: viable
[6]; rifaximin 8 and 32 mg/L for 18 hours
  ETEC viability: viable
[6]; [7]
  ETEC viability: No ETEC isolates were viable; also recorded: not viable
